In patent US8946257B2, “N-containing heteroaryl derivatives as JAK3 kinase inhibitors” (Vectura Limited, priority 2009, dated 2015):

These compounds were tested against T1, catalytic domain of human JAK2 (Homo sapiens, UniProt O60674) (assay: Inhibition of JAK2 activity (Z'-Lyte Kinase Assay kit-Tyr 6 Peptide)).
T1 construct: the catalytic domain of human JAK2
Format: biochemical
Description: The inhibition of JAK2 kinase activity was determined in 384-well assay microplates using the Z′-Lyte® Kinase Assay kit-Tyr 6 Peptide kit, supplied by Invitrogen (Ref: PV4122), following the manufacturer's instructions.
In a final volume of 10 μL per well, 2.5 μL of the product to be tested dissolved in 4% DMSO (final concentration of the product to be tested, 0.1-10000 nM) was incubated with 0.5 μg/well of the catalytic domain of human JAK2, 2 μM of the substrate peptide Z′-Lyte® Tyr 6 and 16 μM of ATP; all components were dissolved in 50 mM pH 7.5 Hepes buffer, 10 mM Magnesium chloride (II), 1 mM EGTA and 0.01% Brij® 35. The reaction was started by the addition of said 16 μM ATP; after incubation for 1 hour at 25° C., 5 μL of A Z′-Lyte® Tyr 6 development reagent was added and the mixture was incubated for 1 hour at 25° C. Phosphorylation was then quantified in each well using a Safire2® fluorescence microplate reader from Tecan.

T1 sequence (O60674 849-1124 limits assumed): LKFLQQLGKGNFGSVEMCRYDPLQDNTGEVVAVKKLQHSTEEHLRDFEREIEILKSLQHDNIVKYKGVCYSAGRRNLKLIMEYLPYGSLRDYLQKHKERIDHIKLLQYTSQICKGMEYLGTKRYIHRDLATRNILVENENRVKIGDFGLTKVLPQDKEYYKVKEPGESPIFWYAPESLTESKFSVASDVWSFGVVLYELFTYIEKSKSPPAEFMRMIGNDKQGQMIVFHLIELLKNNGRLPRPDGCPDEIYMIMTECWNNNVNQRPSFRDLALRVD

inhibition at 1 µM [%] | Compound
> 50 | O=c1[nH]c2cnc(-c3cnn4ccccc34)nc2n1C1CCOCC1 [Example 3, 2-(Pyrazolo[1,5-a]pyridin-3-yl)-9-(tetrahydro-2H-pyran-4-yl)-7H-purin-8(9H)-one]
> 50 | CC(C)(C)OC(=O)N1CCC[C@H](n2c(=O)[nH]c3cnc(-c4cnn5ccccc45)nc32)C1 [Example 3b, (S)-tert-butyl 3-(8-oxo-2-(pyrazolo[1,5-a]pyridin3-yl)-7H-purin-9(8H)-yl)piperidine-1-carboxylate]
> 50 | O=c1[nH]c2cnc(-c3cnn4ccccc34)nc2n1C1CCOc2c(F)cccc21 (stereo not drawn) [Example 3d, 9-(8-fluorochroman-4-yl)-2-(pyrazolo[1,5-a]pyridin-3-yl)-7H-purin-8(9H)-one]
> 50 | COC(=O)[C@H](C)n1c(=O)[nH]c2cnc(-c3cnn4ccccc34)nc21 [Example 3e, methyl (2S)-2-(8-oxo-2-(pyrazolo[1,5-a]pyridin-3-yl)-7,8-dihydro-9H-purin-9-yl)propanoate]
> 50 | Cn1c(=O)n(C2CCOc3c(F)cccc32)c2nc(-c3cnn4ccccc34)ncc21 (stereo not drawn) [Example 4c, 9-(8-fluorochroman-4-yl)-7-methyl-2-(pyrazolo[1,5-a]pyridin-3-yl)-7H-purin-8(9H)-one]
> 50 | Cn1c(=O)n([C@H]2CCCN(C(=O)OC(C)(C)C)C2)c2nc(-c3cnn4ccccc34)ncc21 [Example 5, (S)-tert-Butyl 3-(7-methyl-8-oxo-2-(pyrazolo[1,5-a]pyridine-3-yl)-7H-purin-9(8H)-yl)piperidine-1-carboxylate]
> 50 | Cn1c(=O)n(C2CCOCC2)c2nc(-c3cnn4ccccc34)ncc21 [Example 5a, 7-methyl-2-(pyrazolo[1,5-a]pyridin-3-yl)-9-(tetrahydro-2H-pyran-4-yl)-7H-purin-8(9H)-one]
> 50 | Cn1c(=O)n(C2CCOCC2)c2nc(-c3cnn4ccc(C#N)cc34)ccc21 [Example 5b, 3-(1-methyl-2-oxo-3-(tetrahydro-2H-pyran-4-yl)-2,3-dihydro-1H-imidazo[4,5-b]pyridin-5-yl)pyrazolo[1,5-a]pyridine-5-carbonitrile]
> 50 | Cn1c(=O)n(C2CCC(F)(F)CC2)c2nc(-c3cnn4ccc(C#N)cc34)ncc21 [Example 5e, 3-(9-(4,4-difluorocyclohexyl)-7-methyl-8-oxo-8,9-dihydro-7H-purin-2-yl)pyrazolo[1,5-a]pyridine-5-carbonitrile]
> 50 | Cn1c(=O)n(C2CCS(=O)(=O)C2)c2nc(-c3cnn4ccc(C#N)cc34)ncc21 (stereo not drawn) [Example 5f, 3-(9-(1,1-dioxotetrahydrothien-3-yl)-8,9-dihydro-7-methyl-8-oxopurin-2-yl)pyrazolo[1,5-a]pyridine-5-carbonitrile]
> 50 | Cn1c(=O)n(Cc2ccccc2F)c2nc(-c3cnn4ccc(C#N)cc34)ncc21 [Example 5h, 3-(9-(2-fluorobenzyl)-7-methyl-8-oxo-8,9-dihydro-7H-purin-2-yl)pyrazolo[1,5-a]pyridine-5-carbonitrile]
> 50 | CC(=O)N1CCC(n2c(=O)n(C)c3cnc(-c4cnn5ccc(C(F)(F)F)cc45)nc32)CC1 [Example 5i, 9-(1-acetylpiperidin-4-yl)-7-methyl-2-(5-(trifluoromethyl)pyrazolo[1,5-a]pyridin-3-yl)-7H-purin-8(9H)-one]
> 50 | N#CCC(=O)N1CCC[C@H](n2c(=O)[nH]c3ccc(-c4cnn5ccccc45)nc32)C1 [Example 7p, (S)-3-oxo-3-(3-(2-oxo-5-(pyrazolo[1,5-a]pyridin-3-yl)-1H-imidazo[4,5-b]pyridin-3(2H)-yl)piperidin-1-yl)propanenitrile]
> 50 | CC(C)C(=O)N1CCC[C@H](n2c(=O)[nH]c3ccc(-c4cnn5ccccc45)nc32)C1 [Example 8d, (S)-3-(1-isobutyrylpiperidin-3-yl)-5-(pyrazolo[1,5-a]pyridin-3-yl)-1H-imidazo[4,5-b]pyridin-2(3H)-one]
> 50 | CS(=O)(=O)N1CCC[C@H](n2c(=O)[nH]c3cnc(-c4cnn5ccccc45)nc32)C1 [Example 9a, (S)-9-(1-(methylsulfonyl)piperidin-3-yl)-2-(pyrazolo[1,5-a]pyridin-3-yl)-7H-purin-8(9H)-one]
> 50 | CCCS(=O)(=O)N1CCC[C@H](n2c(=O)[nH]c3cnc(-c4cnn5ccc(C#N)cc45)nc32)C1 [Example 9b, (S)-3-(8-oxo-9-(1-(propylsulfonyl)piperidin-3-yl)-8,9-dihydro-7H-purin-2-yl)pyrazolo[1,5-a]pyridine-5-carbonitrile]
> 50 | N#Cc1ccn2ncc(-c3ncc4[nH]c(=O)n([C@H]5CCCN(S(=O)(=O)CC(F)(F)F)C5)c4n3)c2c1 [Example 9c, (S)-3-(8-oxo-9-(1-(2,2,2-trifluoroethylsulfonyl)piperidin-3-yl)-8,9-dihydro-7H-purin-2-yl)pyrazolo[1,5-a]pyridine-5-carbonitrile]
> 50 | Cn1c(=O)n([C@H]2CCCN(S(C)(=O)=O)C2)c2nc(-c3cnn4ccccc34)ccc21 [Example 9f, (S)-1-methyl-3-(1-(methylsulfonyl)piperidin-3-yl)-5-(pyrazolo[1,5-a]pyridin-3-yl)-1H-imidazo[4,5-b]pyridin-2(3H)-one]
> 50 | Cc1ccn2ncc(-c3ncc4[nH]c(=O)n([C@H]5CCCN(S(C)(=O)=O)C5)c4n3)c2c1 [Example 9g, (S)-2-(5-methylpyrazolo[1,5-a]pyridin-3-yl)-9-(1-(methylsulfonyl)piperidin-3-yl)-7H-purin-8(9H)-one]
> 50 | N#Cc1ccn2ncc(-c3ncc4[nH]c(=O)n([C@H]5CCCN(C(=O)CO)C5)c4n3)c2c1 [Example 10a]
> 50 | CC(C)(O)C(=O)N1CCC[C@H](n2c(=O)[nH]c3cnc(-c4cnn5ccc(C#N)cc45)nc32)C1 [Example 10b]
> 50 | CCC(CC)C(=O)N1CCC[C@H](n2c(=O)[nH]c3cnc(-c4cnn5ccc(C#N)cc45)nc32)C1 [Example 10e]
> 50 | N#Cc1ccn2ncc(-c3ncc4[nH]c(=O)n([C@H]5CCCN(C(=O)CC(F)(F)F)C5)c4n3)c2c1 [Example 10h]

inhibition at 1 µM [%] | Compound
> 50 | CCC(=O)N1CCC[C@H](n2c(=O)[nH]c3cnc(-c4cnn5ccc(C)cc45)nc32)C1 [Example 10i]
> 50 | COCC(=O)N1CCC[C@H](n2c(=O)n(C(=O)COC)c3cnc(-c4cnn5ccc(C)cc45)nc32)C1 [Example 10k]
> 50 | CC(=O)N1CCC[C@H](n2c(=O)[nH]c3cnc(-c4cnn5ccc(C)cc45)nc32)C1 [Example 10l]
> 50 | Cc1ccn2ncc(-c3ncc4[nH]c(=O)n([C@H]5CCCN(C(=O)CO)C5)c4n3)c2c1 [Example 10m]
> 50 | N#Cc1ccn2ncc(-c3ncc4[nH]c(=O)n([C@H]5CCCN(C(=O)C6CC6)C5)c4n3)c2c1 [Example 10n]
> 50 | CCNC(=O)[C@@H](C)n1c(=O)[nH]c2cnc(-c3cnn4ccc(C#N)cc34)nc21 [Example 15f]
> 50 | C[C@H](C(=O)N(C)C)n1c(=O)[nH]c2cnc(-c3cnn4ccc(C#N)cc34)nc21 [Example 15h]
> 50 | C[C@@H](C(=O)NCC(F)(F)F)n1c(=O)[nH]c2cnc(-c3cnn4ccc(C#N)cc34)nc21 [Example 15i]
> 50 | C[C@@H](C(=O)N(C)C)n1c(=O)[nH]c2cnc(-c3cnn4ccccc34)nc21 [Example 15k]
> 50 | COCCn1c(=O)n(C2CCOCC2)c2nc(-c3cnn4ccc(C#N)cc34)ncc21 [Example 16, 3-(7-(2-Methoxyethyl)-8-oxo-9-(tetrahydro-2H-pyran-4-yl)-8,9-dihydro-7H-purin-2-yl)pyrazolo[1,5-a]pyridine-5-carbonitrile]
> 50 | CN(C)CCn1c(=O)n([C@H]2CCCN(C(=O)CC#N)C2)c2nc(-c3cnn4ccc(C#N)cc34)ncc21 [Example 16a]
> 50 | Cc1nc2cnc(-c3cnn4ccc(C#N)cc34)nc2n1C1CCOCC1 [Example 18a]
> 50 | Cc1nc2cnc(-c3cnn4ccc(C#N)cc34)nc2n1C1CCC(F)(F)CC1 [Example 18b]
> 50 | N#Cc1ccn2ncc(-c3ccc4ncn(C5CCOCC5)c4n3)c2c1 [Example 19, 3-(3-(Tetrahydro-2H-pyran-4-yl)-3H-imidazo[4,5-b]pyridin-5-yl)pyrazolo[1,5-a]pyridine-5-carbonitrile]
> 50 | c1csc(-c2nc3cnc(-c4cnn5ccccc45)nc3n2C2CCOCC2)c1 [Example 21k]
> 50 | c1ccn2ncc(-c3ncc4nc(C5CC5)n(C5CCOCC5)c4n3)c2c1 [Example 23d]
> 50 | Cn1c(=O)n([C@H]2CCCN(C(=O)C(C)(C)C)C2)c2nc(-c3cnn4ccccc34)ccc21 [Example 24a]
> 50 | CCC(=O)N1CCC[C@H](n2c(=O)n(C)c3ccc(-c4cnn5ccccc45)nc32)C1 [Example 24c]
> 50 | CCOC(=O)N1CCC[C@H](n2c(=O)[nH]c3cnc(-c4cnn5ccc(C#N)cc45)nc32)C1 [Example 26a]
> 50 | CC(C)NC(=O)N1CCC[C@H](n2c(=O)[nH]c3cnc(-c4cnn5ccc(C#N)cc45)nc32)C1 [Example 26c]
> 50 | CC(C)(C)NC(=O)N1CCC[C@H](n2c(=O)[nH]c3cnc(-c4cnn5ccc(C#N)cc45)nc32)C1 [Example 26d]
> 50 | CCOC(=O)n1c(=O)n([C@H]2CCCN(C(=O)CC#N)C2)c2nc(-c3cnn4ccccc34)ncc21 [Example 26e]
